{"source": "patent US20210244637A1", "about": "“DEUTERATED POLYUNSATURATED FATTY ACIDS OR ESTERS THEREOF FOR COSMETIC APPLICATIONS” (Retrotope, Inc., priority 2020, published 2021)", "test_system": "2-nonenal", "assay": "Reduction in skin odor: 2-nonenal in urine of mice fed D2-LA ethyl ester", "format": "in vivo", "conditions": "BALB/c mice; feed supplemented daily, no more than about 10% of PUFAs ingested; after 4 weeks of dosing; urine collected over 2 days; versus LA ethyl ester cohort", "experimental": "Mice are known to generate skin odor and the causative agent is 2-nonenal. This example explores the contribution of lipid chain auto-oxidation to the generation of such skin odor. Specifically, two cohorts of BALB/c mice are tested. The feed of the first cohort is supplemented daily with D2-LA ethyl ester in an amount such that D2-LA ethyl ester constitutes no more than about 10% of the PUFAs ingested. The feed provided to the other cohort is supplemented with LA ethyl ester in otherwise identical amounts. After 4 weeks of dosing, the urine from each cohort is collected over a 2-day period and then analyzed to assess differences in the amount of 2-nonenal. Alternatively, skin samples can be evaluated for sebum exudates such as by swabs for chemical components."}
{"smiles": "[2H]C([2H])(/C=C\\CCCCC)/C=C\\CCCCCCCC(=O)OCC", "note": "[D2-linoleic acid ethyl ester]", "values": [{"measurement": "amount of 2-nonenal", "value": "significant reduction"}]}
